Assay results: patent publication US11603386B2, “Insect, tick, and mite repellent derived from Xenorhabdus budapestensis” (Wisconsin Alumni Research Foundation, priority 2017, dated 2023)

Tested on: Aedes aegypti
Test: Repellent screening assay (in vitro membrane feeding, Hemotek feeder, treated cloth)
Assay type: in vivo
Settings: for RD90: concentration producing 90% reduction in feeding rate, 30 min exposure
Description: FIG. 1 is a photograph of the equipment used for the repellent screening assay. The apparatus includes a temperature-controlled feeder unit which includes a collagen casing covered by conventional cheese cloth. The collagen mimics the surface of human and is in contact with a heating element (not seen in FIG. 1) whose temperature is controlled by the temperature controller. The collagen pad is saturated with a solution that mimics human blood. The compound whose repellency is to be tested is applied to the cheese cloth, which is then affixed to the collagen pad. In the main panel in FIG. 1, the feeder unit is shown in its operational position, on top of a container in which are mosquitos (or any other arthropod) that is to be repelled. […] In practice, a known amount of putative repellent is applied to the cheese cloth. Unfed mosquitos, for example, are within the mosquito container. The feeder unit is then placed on top of the mosquito container for a pre-determined amount of time. The mosquitos are then sacrificed and examined to determine how many mosquitos fed (i.e., were not repelled) and how many mosquitos were still unfed after the test (i.e., were repelled). In this fashion, very reliable data can be generated regarding the effectiveness of any putative repellent composition. See Katritzky, A. R., et al. (2008) Proc. Nat. Acad. Sci. (US), 105:7359-7364 and Katritzky, A. R., et al. (2010) Journal of Med. Entomol., 47:924-938.
Unfed mosquitos are then used as test subjects. After the time course of each experiment is completed, the mosquitos are sacrificed and examined to determine how many mosquitos have fed (and thus were not repelled) versus how many mosquitos remain unfed (and thus were repelled). Fed versus unfed mosquitos can be separated by simple visual examination. Fed mosquites have an engorged, distended appearance. Representative images depicting the appearance of fed vs unfed mosquitoes resulting from the repellent screening assays is shown in FIG. 7. Images clearly show engorged abdomens and food red dye when mosquitoes were exposed to water only as negative repellent controls (FIG. 7, panel A).
A colony of the Aedes aegypti Liverpool strain was maintained at the University of Wisconsin according to standard procedures reported previously (Paskewitz et al., 1999; Kajla et al., 2010, Christensen et al., 1984). Anopheles gambiae and Culex pipiens (Iowa strain) were reared according to established protocols (Aliota et al., 2016) in a 100 square feet walk-in environmental chamber maintained at 26.5±0.5° C. and 80±5% relative humidity. For egg production, adult female mosquitoes were offered defibrinated rabbit blood (HemoStat Laboratories, Dixon, Calif., USA) via a Hemotek-brand membrane feeding system (Discovery Workshops, Accrington, UK) once a week. Adult mosquitoes were maintained on a constant exposure to 10% sucrose on cotton balls and larvae were fed Tetramin®-brand fish food. For repellent assays, nulliparous, mated, twenty 7-10 days old adult female mosquitoes were separated in screened pint-size paper containers (Neptune Paper Products, Fort Lee, N.J., USA). Mosquitoes were starved for 12-16 hours before the repellent assay. Mosquitoes were exposed to repellent compounds for 30 min at room temperature (incandescent light, 25-26° C.) between 10:00 am and 4:00 pm (see below for repellent assay set-up).
A Hemotek-brand feeding system was used to keep the feeding solution at a constant temperature set at 37° C. […]

Row | SMILES | RE90 (relative efficacy) | Feeding (engorgement / red dye in abdomen) (1%, positive control, FIG. 7 panel B) | RD90
1 | CCN(CC)C(=O)c1cccc(C)c1 [DEET, N,N-diethyl-3-methylbenzamide] | 1 | no feeding occurred | 0.188 Percent concentration (v/v)
2 | CCC(C)OC(=O)N1CCCCC1CCO (centres unmarked) [Picaridin] | 0.37 |  | 0.498 Percent concentration (v/v)
